The subject of one data set is LRRK2. Briefly: Endogenous LRRK2 levels in SH-SY5Y cells, Western blot. Format: cell-based, human.
The subject of data set [1] is [α-32P]cap-labeled LRRK2 RNA. In words: In vitro decapping assay. The settings on record: recombinant Flag-tagged protein from HEK 293T cells, thin layer chromatography. Format: biochemical, human.
For data set [2] the following is noted: stated as reason for using the precursor AICAr; cited from earlier work.

`N#Cc1c(O)c2c(-c3ccc(-c4ccccc4O)cc3)csc2[nH]c1=O` [A769662]: the LRRK2 levels result in the data set with LRRK2 (SH-SY5Y, 10, 20, or 50 μM A769662, 48 hours) was “no obvious effects”.

“DCP2: recombinant Flag-tagged decapping enzyme purified from HEK 293T cells”: the “LRRK2 mRNA decapping activity (m7GDP level)” value in data set [1] was “decapped LRRK2 mRNA”. Consider `Nc1ncnc2nc(-c3ccc(N4CCOCC4)nc3)cc(-c3cccc(Br)c3)c12` [ABT-702], for which the “effect of AICAr on LRRK2 levels in the presence of ABT-702” value with LRRK2 (SH-SY5Y, 1 mM AICAr plus 1 μM ABT-702, 48 hours) is listed as “completely counteracted”. For `O=[N+]([O-])c1ccc(CSc2ncnc3c2ncn3[C@@H]2O[C@H](CO)[C@@H](O)[C@H]2O)cc1` [NBTI], in the data set on LRRK2 (SH-SY5Y, 1 mM AICAr plus 50 μM NBT-1, 48 hours), the “effect of AICAr on LRRK2 levels in the presence of NBTI” value is “completely abolished”. As to `NC(=O)c1ncn([C@@H]2O[C@H](COP(=O)(O)O)[C@@H](O)[C@H]2O)c1N` [AICAR/ZMP, 5-aminoimidazole-4-carboxamide ribonucleotide], the membrane permeability entry in data set [2] is listed as “membrane impermeable”.

B1: DCP1A: recombinant Flag-tagged decapping enzyme purified from HEK 293T cells (protein, UniProt Q9NPI6 1-582, looked up)
mRNA-decapping enzyme 1A: MEALSRAGQEMSLAALKQHDPYITSIADLTGQVALYTFCPKANQWEKTDIEGTLFVYRRSASPYHGFTIVNRLNMHNLVEPVNKDLEFQLHEPFLLYRNASLSIYSIWFYDKNDCHRIAKLMADVVEEETRRSQQAARDKQSPSQANGCSDHRPIDILEMLSRAKDEYERNQMGDSNISSPGLQPSTQLSNLGSTETLEEMPSGSQDKSAPSGHKHLTVEELFGTSLPKEQPAVVGLDSEEMERLPGDASQKEPNSFLPFPFEQLGGAPQSETLGVPSAAHHSVQPEITTPVLITPASITQSNEKHAPTYTIPLSPVLSPTLPAEAPTAQVPPSLPRNSTMMQAVKTTPRQRSPLLNQPVPELSHASLIANQSPFRAPLNVTNTAGTSLPSVDLLQKLRLTPQHDQIQTQPLGKGAMVASFSPAAGQLATPESFIEPPSKTAAARVAASASLSNMVLAPLQSMQQNQDPEVFVQPKVLSSAIPVAGAPLVTATTTAVSSVLLAPSVFQQTVTRSSDLERKASSPSPLTIGTPESQRKPSIILSKSQLQDTLIHLIKNDSSFLSTLHEVYLQVLTKNKDNHNL
modifications: Flag tag
notes: recombinant Flag-tagged decapping enzyme purified from HEK 293T cells
As for B1, the “LRRK2 mRNA decapping activity (m7GDP level)” value in data set [1] is listed as “decapped LRRK2 mRNA”.

Values taken from US20240075050A1, “Methods and Compositions for Treating Leucine Rich Repeat Kinase 2 (LRRK2)-Associated Disorder or Condition” (University of Connecticut, priority 2022, published 2024).
